Biological target: T1, Neutrophil elastase (Homo sapiens, UniProt P08246)
T1 sequence (P08246 whole entry): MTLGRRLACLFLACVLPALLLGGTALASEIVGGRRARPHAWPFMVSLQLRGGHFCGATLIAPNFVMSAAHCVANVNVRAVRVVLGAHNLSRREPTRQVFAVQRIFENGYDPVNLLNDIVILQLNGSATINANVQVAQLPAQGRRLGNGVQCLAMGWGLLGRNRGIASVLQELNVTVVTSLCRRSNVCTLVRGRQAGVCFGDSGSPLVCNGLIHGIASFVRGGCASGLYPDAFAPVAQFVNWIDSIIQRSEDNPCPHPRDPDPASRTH
Assay: Inhibition of human neutrophil elastase

O=C(O[C@@H]1Cc2c(O)cc(O)cc2O[C@@H]1c1cc(O)c(O)c(O)c1)c1cc(O)c(O)c(O)c1 [EPIGALOCATECHIN GALLATE] was tested, and the IC50 was 12.8 µM.

From ChEMBL document CHEMBL1153219, “Evaluation of human neutrophil elastase inhibitory effect of iridoid glycosides from Hedyotis diffusa” (Bioorg Med Chem Lett, 2010)
